# Like-named read-outs stand apart in the source and are kept apart here. Peptide text beside a SMILES is read from it. * marks the point of attachment. Cbz = O=C(OCc1ccccc1)*
# What was measured:
# [1] = cited from earlier work
# [2] = target: T1, β5 active site of the human 20S proteasome (Homo sapiens, UniProt P28074); assay: Proteasome kinetic assay (β5 chymotrypsin-like active site); format: biochemical; conditions: substrate Suc-LLVY-AMC 100 µM
# T1 construct: purchased Boston Biochem
# Experimental: Human 20S proteasome, 700 KDa, was purchased from Boston Biochem (50 µg, 2 µM (1.4 mg/mL)) in 50 mM HEPES buffer (pH 7.6, 100 mM NaCl, 1 mM DTT). Assay buffer was prepared as follows: 20 mM HEPES buffer pH 7.8, 0.5 mM EDTA, 0.037% SDS. Proteasome specific substrate Suc-LLVY-AMC was purchased from Boston Biochem and used as a fluorogenic substrate; λex = 380 nm, λem = 442 nm. 18 µL of 2 µM proteasome solution was diluted with 425 µL H2O to make a 0.06 µM stock enzyme solution for kinetic assays. In a 96-well plate suitable for fluorometric assays was added 86 µL assay buffer, 2 µL inhibitor, 2 µL enzyme substrate, and 10 µL enzyme stock solution ([…] enzyme concentration in well). Fluorescence at 442 nM was monitored for 10 min. […] IC50 values were obtained from non-linear fitting of the data to a competitive inhibition model using GraphPad Prism 7.0 software. The proteasome β5 chymotrypsin-like active site activity assay was performed as previously described.
# human caspase-3 = target: T2, human caspase-3 (Homo sapiens, UniProt P42574); assay: Caspase-3 kinetic assay; format: biochemical; conditions: substrate Ac-DEVD-AMC 0.1 mM, 37 °C
# T2 construct: gift, Prof; Guy Salvesen's laboratory
# T2 sequence (P42574 29-175 limits assumed): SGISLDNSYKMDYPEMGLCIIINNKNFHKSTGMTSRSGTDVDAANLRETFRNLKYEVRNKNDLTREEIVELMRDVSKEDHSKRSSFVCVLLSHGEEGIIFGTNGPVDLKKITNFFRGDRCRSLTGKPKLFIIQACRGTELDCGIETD
# T2 sequence (P42574 176-277 limits assumed): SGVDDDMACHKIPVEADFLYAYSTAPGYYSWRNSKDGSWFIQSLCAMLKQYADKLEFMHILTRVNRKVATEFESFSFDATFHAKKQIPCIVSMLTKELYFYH
# Experimental: (§1) Caspase-3 and caspase-6 were generous gifts from Prof. Guy Salvesen’s laboratory and then used at Ohio State University. Caspase activities were measured in 100 mM HEPES, 10% sucrose, 0.1% CHAPS, 10 mM DTT, pH 7.5 at 37 °C. To 5,000 µL of this buffer, 100 µL of freshly prepared 1 M DTT and 4,900 µL DI H2O were added resulting in the caspase assay buffer. Studies were performed at 37 °C.
# Caspase-3 specific substrate Ac-DEVD-AMC was purchased from Cayman Chemical Company and used as fluorogenic substrate; λex = 353 nm, λem = 442 nm. 2 µL of 33 µM caspase-3 solution was diluted with 4998 µL caspase assay buffer to make a 13.2 nM enzyme stock solution. In a 96-well plate suitable for fluorometric assays, 80 µL assay buffer, 5 µL inhibitor, 5 µL enzyme substrate (0.1 mM), and 10 µL enzyme stock solution were added. Fluorescence at 442 nM was monitored for 10 min. The enzyme activity was measured in triplicate at varying concentrations of inhibitor (0, 25, 50, 100 µM in DMSO) and substrate (0.1 mM in DMSO) by converting the slope of the plot of fluorescence intensity at 442 nm vs time for the time points between 4 and 8 min using Beer-Lambert’s law. IC50 values were obtained from non-linear fitting of the data to a competitive inhibition model using GraphPad Prism 7.0 software.
# human caspase-6 = target: T3, human caspase-6 (Homo sapiens, UniProt P55212); assay: Caspase-6 kinetic assay; format: biochemical; conditions: for IC50: substrate Ac-VEID-AFC 0.1 mM, 37 °C
# T3 construct: gift, Prof; Guy Salvesen's laboratory
# T3 sequence (P55212 24-179 limits assumed): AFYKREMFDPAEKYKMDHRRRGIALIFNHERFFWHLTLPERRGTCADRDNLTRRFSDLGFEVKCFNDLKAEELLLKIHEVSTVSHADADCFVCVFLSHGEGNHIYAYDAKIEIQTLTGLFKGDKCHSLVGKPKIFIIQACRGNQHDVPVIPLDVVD
# T3 sequence (P55212 194-293 limits assumed): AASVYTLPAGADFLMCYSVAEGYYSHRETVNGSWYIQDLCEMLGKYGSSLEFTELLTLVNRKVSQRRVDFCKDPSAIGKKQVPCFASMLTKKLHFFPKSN
# Experimental: as §1
# Caspase-6 specific substrate Ac-VEID-AFC was purchased from ChemCruz and used as a fluorogenic substrate; λex = 400 nm, λem = 505 nm. To 45 µL of assay buffer, 5 µL of the 19.7 µM enzyme was added. This resulting enzyme solution was further diluted 1:5 with assay buffer resulting in a 0.32 µM solution. In a 96-well plate suitable for fluorometric assays was added 80 µL assay buffer, 5 µL inhibitor, 5 µL enzyme substrate (0.1 mM), and 10 µL enzyme stock solution (32 nM enzyme concentration in well). The enzyme activity was measured in triplicate at varying concentrations of inhibitor (0, 25, 50, 100 µM in DMSO) and substrate (0.1 mM in DMSO) by converting the slope of the plot of fluorescence intensity at 442 nm vs time for the time points between 4 and 8 min using Lambert-Beer’s law. IC50 values were obtained from non-linear fitting of the data to a competitive inhibition model using GraphPad Prism 7.0 software.
# S. mansoni legumain = S. mansoni legumain (Schistosoma mansoni, UniProt P09841); assay: Legumain kinetic assay (S. mansoni); format: biochemical; conditions: for IC50: substrate Cbz-AAN-AMC 50 µM, pH 5.5
# Experimental: (§2) Schistosoma mansoni and Ixodes ricinus legumain zymogens were expressed in the yeast, Pichia pastoris, as described[36]^,[42]. Legumain kinetic assay details: zymogens were activated for 3 h (Ir) or overnight (Sm) at room temperature in 0.1 M Na-Ac pH 4.0; 5 mM DTT. Activities were measured in 0.1 M Na-Ac pH 5.5; 2.5 mM DTT, 0.1% PEG 6000 buffer. The substrate used was Cbz-AAN-AMC with 50 µM final concentration in the assay. Inhibitors were prepared in DMSO (1% DMSO in activity assay). Measurements were taken with an incubation period of 10 min at room temperature, and the enzyme activity was measured in triplicate. Asparaginyl Endopeptidase (AE) activity assay was performed as previously described.
# I. ricinus legumain = I. ricinus legumain (Ixodes ricinus, UniProt Q6PRC7); assay: Legumain kinetic assay (I. ricinus); format: biochemical
# Experimental: as §2
# proteasome = conditions: substrate Suc-LLVY-AMC, cited from earlier work; for Ki: read-out: previously reported Ki
# [3] = target: calpains and various lysosomal cathepsins; design: method as in PMID 8087844; conditions: cited from earlier work
# [4] = at the highest concentration tested (100 µM)
# Chain of S. mansoni legumain (P09841 32-291): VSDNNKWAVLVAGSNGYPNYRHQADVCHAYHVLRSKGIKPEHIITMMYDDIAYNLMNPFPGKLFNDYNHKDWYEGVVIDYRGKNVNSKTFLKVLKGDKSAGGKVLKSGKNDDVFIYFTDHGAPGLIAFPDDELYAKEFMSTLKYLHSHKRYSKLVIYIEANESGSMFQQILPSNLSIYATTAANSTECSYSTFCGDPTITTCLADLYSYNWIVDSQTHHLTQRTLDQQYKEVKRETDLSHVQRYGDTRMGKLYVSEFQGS
# Chain of I. ricinus legumain (Q6PRC7 37-328 limits assumed): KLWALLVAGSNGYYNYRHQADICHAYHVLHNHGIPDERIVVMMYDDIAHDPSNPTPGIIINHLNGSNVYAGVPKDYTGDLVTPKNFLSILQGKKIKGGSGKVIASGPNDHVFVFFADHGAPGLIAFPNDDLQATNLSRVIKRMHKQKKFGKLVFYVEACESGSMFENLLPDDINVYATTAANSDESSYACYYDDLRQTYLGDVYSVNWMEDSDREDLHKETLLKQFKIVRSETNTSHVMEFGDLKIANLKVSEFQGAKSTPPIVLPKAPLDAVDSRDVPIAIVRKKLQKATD
smiles,measurement,setting,value
"CC(C)C[C@H](NC(=O)[C@H](CCc1ccccc1)NC(=O)CN1CCOCC1)C(=O)N[C@@H](Cc1ccccc1)C(=O)N[C@@H](CC(C)C)C(=O)[C@@]1(C)CO1 [Carfilzomib, carfilzomib]","adverse cardiovascular effects, share of patients",[1]; treated patients,up to 30%
"CC(C)C[C@H](NC(=O)OCc1ccccc1)C(=O)N[C@@H](CC(C)C)C(=O)NN(CC(C)C)C(=O)C=O [Compound 3, Benzyl ((S)-1-(((S)-1–(2-isobutyl-2–(2-oxoacetyl)hydrazinyl)-4-methyl-1-oxopentan-2-yl)amino)-4-methyl-1-oxopentan-2-yl)carbamate]",IC50,[2],9.02 ± 1.82 µM
"CC(=O)C(=O)N(CC(C)C)NC(=O)[C@H](CC(C)C)NC(=O)[C@H](CC(C)C)NC(=O)OCc1ccccc1 [Compound 4, Benzyl ((S)-1-(((S)-1–(2-isobutyl-2–(2-oxopropanoyl)hydrazinyl)-4-methyl-1-oxopentan-2-yl)amino)-4-methyl-1-oxopentan-2-yl)carbamate]",IC50,[2],14.6 ± 2.39 µM
"CC(C)C[C@H](NC(=O)OCc1ccccc1)C(=O)N[C@@H](CC(C)C)C(=O)NN(CC(C)C)C(=O)C(=O)Cc1ccccc1 [Compound 5, Benzyl ((S)-1-(((S)-1–(2-isobutyl-2–(2-oxo-3-phenylpropanoyl)hydrazinyl)-4-methyl-1-oxopentan-2-yl)amino)-4-methyl-1-oxopentan-2-yl)carbamate]",IC50,[2],10.1 ± 4.49 µM
"CC(=O)C(=O)N(CC(=O)O)NC(=O)[C@@H](NC(=O)[C@H](CCC(=O)O)NC(=O)[C@H](CC(=O)O)NC(=O)OCc1ccccc1)C(C)C [Compound 6, (5S,8S,11S)-8–(2-Carboxyethyl)-5-(carboxymethyl)-11-isopropyl-3,6,9,12-tetraoxo-14–(2-oxopropanoyl)-1-phenyl-2-oxa-4,7,10,13,14-pentaazahexadecan-16-oic acid]",IC50,human caspase-3,7.74 ± 1.88 µM
same,IC50,human caspase-6,51.9 ± 10.6 µM
"CC(C)[C@H](NC(=O)[C@H](CCC(=O)O)NC(=O)[C@H](CC(=O)O)NC(=O)OCc1ccccc1)C(=O)NN(CC(=O)O)C(=O)C(=O)Cc1ccccc1 [Compound 7, (5S,8S,11S)-8–(2-Carboxyethyl)-5-(carboxymethyl)-11-isopropyl-3,6,9,12-tetraoxo-14–(2-oxo-3-phenylpropanoyl)-1-phenyl-2-oxa-4,7,10,13,14-pentaazahexadecan-16-oic acid]",IC50,human caspase-3,13.4 ± 4.61 µM
same,IC50,human caspase-6,64.2 ± 45.4 µM
"CC[C@@H](C)[C@H](NC(=O)OCc1ccccc1)C(=O)N[C@@H](CCC(=O)O)C(=O)N[C@H](C(=O)NN(CC(=O)O)C(=O)C(C)=O)[C@H](C)O [Compound 8, (5S,8S,11S)-5-((R)-s-butyl)-8–(2-carboxyethyl)-11-((S)-1-hydroxyethyl)-3,6,9,12-tetraoxo-14–(2-oxopropanoyl)-1-phenyl-2-oxa-4,7,10,13,14-pentaazahexadecan-16-oic acid]",IC50,human caspase-3,122 ± 83.3 µM
same,inhibits caspase-6 more effectively than caspase-3,human caspase-6; ratio of IC50 caspase-3 / caspase-6,13 times
same,IC50,human caspase-6,9.08 ± 3.02 µM
"CC(=O)C(=O)N(CC(N)=O)NC(=O)[C@H](C)NC(=O)[C@H](C)NC(=O)OCc1ccccc1 [Compound 10, Benzyl ((S)-1-(((S)-1–(2–(2-amino-2-oxoethyl)-2-(2-oxopropanoyl)hydrazinyl)-1-oxopropan-2-yl)amino)-1-oxopropan-2-yl)carbamate]",inhibition of S. mansoni legumain,S. mansoni legumain; [4],did not show inhibition
same,IC50,S. mansoni legumain,> 100 µM
same,inhibition of I. ricinus legumain,I. ricinus legumain; [4],did not show inhibition
same,IC50,"I. ricinus legumain; substrate Cbz-AAN-AMC 50 µM, pH 5.5, read-out: IC50 I. ricinus",> 100 µM
"C[C@H](NC(=O)OCc1ccccc1)C(=O)N[C@@H](C)C(=O)NN(CC(N)=O)C(=O)C(=O)Cc1ccccc1 [Compound 11, Benzyl ((S)-1-(((S)-1–(2–(2-amino-2-oxoethyl)-2-(2-oxo-3-phenylpropanoyl)hydrazinyl)-1-oxopropan-2-yl)amino)-1-oxopropan-2-yl)carbamate]",IC50,S. mansoni legumain,22.2 ± 4.21 µM
same,IC50,I. ricinus legumain,17.8 ± 11.2 µM
"CCC[C@@H](C=O)NC(=O)[C@H](CC(C)C)NC(=O)[C@H](CC(C)C)NC(=O)OCc1ccccc1 [MG115, Cbz-Leu-Leu-Nle-CHO]",Ki,proteasome,0.021 µM
"CC(C)C[C@@H](C=O)NC(=O)[C@H](CC(C)C)NC(=O)[C@H](CC(C)C)NC(=O)OCc1ccccc1 [MG132, Cbz-Leu-Leu-Leu-CHO] (Cbz-Leu-Leu-Leu-aldehyde)",previously reported Ki,proteasome,few nanomolar
same,Ki,proteasome,0.002 to 0.004 µM
same,Ki,[3],0.005 to 0.012 µM
CC(C)C[C@H](NC(=O)[C@H](Cc1ccccc1)NC(=O)c1cnccn1)B(O)O [bortezomib],"peripheral neuropathy, share of patients",[1]; newly diagnosed multiple myeloma patients,up to 64%

# — paper PMC7470110, “Design, synthesis, and in vitro evaluation of aza-peptide aldehydes and ketones as novel and selective protease inhibitors” (Journal of Enzyme Inhibition and Medicinal Chemistry, 2020)
